Reference: patent US20260285716A1, “METHODS TO REDUCE CONTAMINATION, BIOFILM, AND FOULING FROM WATER SYSTEMS AND SURFACES” (Aequor Inc., priority 2022, published 2026)

Tested on: Pseudomonas aeruginosa
Format: cell-based

Q: Which “MBEC (removal of 48-hr biofilm)” value does the source give for butyl acid phosphate [BAP] here?
A: ≤47 ppm
